In ChEMBL document CHEMBL5154802, “Leveraging Structure-Based Drug Design to Identify Next-Generation MAT2A Inhibitors, Including Brain-Penetrant and Peripherally Efficacious Leads” (J Med Chem, 2022):
The source made the active and inactive calls. No cut-off for these calls is given here.

What was measured:
[1] = molecular target: T1, S-adenosylmethionine synthase isoform type-2 (Homo sapiens, UniProt P31153); test: Inhibition of recombinant human MAT2A expressed in baculovirus infected Sf9 cells assessed as S-adenosyl methionine production using L-methionine as substrate preincubated for 60 mins followed by substrate addition and measured after 60 mins in presence of ATP
Target sequence in this assay (P31153 whole entry, canonical isoform): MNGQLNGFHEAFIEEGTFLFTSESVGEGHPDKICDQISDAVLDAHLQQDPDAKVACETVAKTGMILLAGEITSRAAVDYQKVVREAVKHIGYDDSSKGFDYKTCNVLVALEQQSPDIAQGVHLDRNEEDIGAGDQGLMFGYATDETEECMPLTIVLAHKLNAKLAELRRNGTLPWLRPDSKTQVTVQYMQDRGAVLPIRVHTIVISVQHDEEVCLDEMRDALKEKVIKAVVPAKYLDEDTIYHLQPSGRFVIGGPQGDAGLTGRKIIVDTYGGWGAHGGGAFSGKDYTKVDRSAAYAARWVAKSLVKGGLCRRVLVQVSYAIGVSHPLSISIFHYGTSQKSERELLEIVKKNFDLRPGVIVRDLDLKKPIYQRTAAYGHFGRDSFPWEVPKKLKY

[2] = molecular target: T1, S-adenosylmethionine synthase isoform type-2; test: Inhibition of recombinant human MAT2A expressed in baculovirus infected Sf9 cells assessed as S-adenosyl methionine production using L-methionine as substrate preincubated for 60 mins followed by substrate addition and measured after 60 mins in presence of ATP relative to control
Target sequence in this assay (P31153 whole entry, looked up, canonical isoform): as the sequence (P31153 whole entry, canonical isoform) above

[3] = molecular target: T1, S-adenosylmethionine synthase isoform type-2; test: Inhibition of […] in MTAP-null human HCT-116 cells after 72 hrs by LC-MS/MS analysis relative to control; type: cell-based; conditions: HCT116-MTAP null
Target sequence in this assay (P31153 whole entry, looked up, canonical isoform): as the sequence (P31153 whole entry, canonical isoform) above

[4] = molecular target: T1, S-adenosylmethionine synthase isoform type-2; test: Inhibition of […] in MTAP-null human HCT-116 cells after 72 hrs by LC-MS/MS analysis; type: cell-based, HCT116-MTAP null
Target sequence in this assay (P31153 whole entry, canonical isoform): as above

[5] = In vivo inhibition of MAT2A in human HCT116-MTAP null cells xenografted po dosed nu/nu mouse model assessed as plasma exposure required for reduction in tumor SAM level; type: functional
KP-4 = test: Antitumor activity against human KP-4 cells xenografted in CB17-SCID mouse assessed as tumor growth inhibition […] at 30 to 60 mg/kg, po QD for 13 days; type: functional, organism-based; conditions: dose 30-60 mg/kg, time 13.0 day
PXR (NR1I2) = molecular target: T2, PXR (NR1I2) (Homo sapiens, UniProt O75469); test: Transactivation of human PXR transfected in HepG2 cells assessed as CYP450 induction by measuring fold activation at 10 uM by luciferase reporter gene assay; type: ADME, cell-based; conditions: HepG2 cells transfected with human PXR, read-out: FC
T2 sequence (O75469 whole entry): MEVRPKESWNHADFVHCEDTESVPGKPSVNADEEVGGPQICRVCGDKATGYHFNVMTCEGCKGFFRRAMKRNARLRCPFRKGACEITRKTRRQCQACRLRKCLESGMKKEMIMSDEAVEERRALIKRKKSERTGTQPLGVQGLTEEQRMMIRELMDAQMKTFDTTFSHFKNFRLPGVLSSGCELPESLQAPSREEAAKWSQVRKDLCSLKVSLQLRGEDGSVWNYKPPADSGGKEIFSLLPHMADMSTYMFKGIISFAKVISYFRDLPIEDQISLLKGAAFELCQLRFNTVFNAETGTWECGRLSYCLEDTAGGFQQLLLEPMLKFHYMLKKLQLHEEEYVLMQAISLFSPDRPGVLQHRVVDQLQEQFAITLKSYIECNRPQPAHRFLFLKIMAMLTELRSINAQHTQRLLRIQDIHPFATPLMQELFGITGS

[6] = Ratio of drug concentration in brain to plasma of mouse at 10 mg/kg, po measured at 1 to 4 hrs post dose; type: ADME, organism-based; conditions: brain and plasma, time 1-4 hrs
[7] = Inhibition of MAT2A in human HCT116-MTAP null cells xenografted po dosed nu/nu mouse model assessed as plasma exposure required for reduction in periphery SAM level; type: functional
HCT116-MTAP null = test: Antitumor activity against human HCT116-MTAP null cells xenografted in nu/nu mouse assessed as inhibition of tumor […] at 10 to 30 mg/kg, po QD for 21 days; type: functional, organism-based; conditions: dose 10-30 mg/kg, time 21.0 day

| IC50 [1] [nM] | Imax [2] [%] | Imax [3] [%] | IC50 [4] [nM] | SMILES | also measured |
| --- | --- | --- | --- | --- | --- |
| 7200 | 46 | – | – | Cc1nc(NCC2CC2)nc2c1COCC21CCN(Cc2ccccc2F)C1 (configuration not stated) | – |
| 3310 | 71 | – | – | COc1ccc(-n2cc3cnc(N(C)CC(F)(F)F)nc3c(-c3ccc(Br)cc3)c2=O)cc1 | – |
| – | – | 82 | 32 | Cn1cc2cc(-n3cc4ccc(OCC(F)(F)F)nc4c(-c4ccc(Cl)cc4)c3=O)ccc2n1 | – |
| 22 | 94 | 84 | 34 | COc1ccc(-n2cc3cnc(NCC(F)(F)F)nc3c(-c3ccc(Br)cc3)c2=O)cc1 | fIC50 [5]: 10.2 nM; Activity (KP-4): Active |
| – | – | 76 | 101 | Cn1cc2cc(-n3cc4ccc(CCC(F)(F)F)nc4c(-c4ccc(Cl)cc4)c3=O)ccc2n1 | – |
| 610 | 62 | – | – | COc1ccc(N2Cc3cnc(NCC4CC4)nc3C3(CCN(Cc4cscn4)C3)C2=O)cc1 (configuration not stated) | – |
| 530 | 50 | – | – | COc1ccc(N2Cc3cnc(NCC4CC4)nc3C3(CCN(Cc4ccon4)C3)C2=O)cc1 (configuration not stated) | – |
| 325 | 69 | – | – | COc1ccc(-n2cc3cnc(NCCC(F)(F)F)nc3c(-c3ccc(Br)cc3)c2=O)cc1 | – |
| – | – | 80 | 31 | Cn1cnc2ccc(-n3cc4cnc(NCC(F)(F)F)nc4c(-c4ccc(Cl)cc4)c3=O)cc21 | – |
| – | – | 88 | 13 | Cn1cc2cc(-n3cc4ccc(OCC(F)F)nc4c(-c4ccc(Cl)cc4)c3=O)ccc2n1 | fold induction at 10 µM (PXR (NR1I2)): 3.8 |
| 2010 | 34 | – | – | COc1ccc(N2Cc3cnc(NCC4CC4)nc3C3(CCN(Cc4cc[nH]c4)C3)C2=O)cc1 (configuration not stated) | – |
| 410 | 38 | – | – | COc1ccc(N2Cc3cnc(NCC4CC4)nc3C3(CCN(Cc4cnc(N)s4)C3)C2=O)cc1 (configuration not stated) | – |
| – | – | 89 | 23 | CCOc1ccc2cn(-c3ccc4nn(C)cc4c3)c(=O)c(-c3ccc(Cl)cc3)c2n1 | fIC50 [5]: 9.8 nM |
| – | – | 83 | 79 | O=c1c(-c2ccc(Cl)cc2)c2nc(NCC(F)(F)F)ncc2cn1-c1ccc2ncccc2c1 | – |
| 250 | 50 | – | – | COc1ccc(N2Cc3c(C)nc(NCC4CC4)nc3C3(CCN(Cc4ccccc4F)C3)C2=O)cc1 (configuration not stated) | – |
| 34 | 91 | – | – | CCNc1ncc2cn(-c3ccc(OC)cc3)c(=O)c(-c3ccc(Br)cc3)c2n1 | – |
| 690 | 88 | – | – | COc1ccc(N2Cc3cnc(NCC4CC4)nc3C3(CCN(Cc4cc[nH]n4)C3)C2=O)cc1 (configuration not stated) | – |
| – | – | 81 | 10 | CCNc1ccc2cn(-c3ccc4nn(C)cc4c3)c(=O)c(-c3ccc(Cl)cc3)c2n1 | – |
| – | – | 82 | 11 | Cn1cc2cc(-n3cc4ccc(NCC(F)(F)F)nc4c(-c4ccc(Cl)cc4)c3=O)ccc2n1 | – |
| – | – | 83 | 113 | COc1ccc(-n2cc3cnc(NCC(F)(F)F)nc3c(-c3ccc(Cl)cc3)c2=O)cc1 | – |
| 48 | 73 | – | – | CCCNc1ncc2cn(-c3ccc(OC)cc3)c(=O)c(-c3ccc(Br)cc3)c2n1 | – |
| 54 | 88 | – | – | COc1ccc(-n2cc3cnc(NCC4CC4)nc3c(-c3ccc(Br)cc3)c2=O)cc1 | – |
| 510 | 38 | – | – | COc1ccc(N2Cc3cnc(NCC4CC4)nc3C3(CCN(Cc4ccsc4)C3)C2=O)cc1 (configuration not stated) | – |
| – | – | 84 | 46 | O=c1c(-c2ccc(Br)cc2)c2nc(NCC(F)(F)F)ncc2cn1-c1ccc2ncccc2c1 | fold induction at 10 µM (PXR (NR1I2)): 5.3; Kp [6]: 0.1 |
| – | – | 80 | 14 | Cn1cc2cc(-n3cc4cnc(NCC(F)(F)F)nc4c(-c4ccc(Cl)cc4)c3=O)ccc2n1 | fIC50 [5]: 1.8 nM; fIC50 [7]: 2 nM; Activity (HCT116-MTAP null): Active |
| – | – | 80 | 21 | Cc1nc2ccc(-n3cc4cnc(NCC(F)(F)F)nc4c(-c4ccc(Cl)cc4)c3=O)cc2n1C | – |
| 320 | 38 | – | – | COc1ccc(N2Cc3cnc(NCC4CC4)nc3C3(CCN(Cc4ccccc4F)C3)C2=O)cc1 (configuration not stated) | – |
| 7830 | 60 | – | – | COc1ccc(N2Cc3cnc(NCC4CC4)nc3C3(CCN(Cc4cn[nH]c4)C3)C2=O)cc1 (configuration not stated) | – |
